# Data: patent US20130065964A1, “PERITONEAL DIALYSIS SOLUTION” (UNIVERSIDAD DE CASTILLA LA MANCHA, priority 2010, published 2013)
# Test system: fibronectin
# Experiment: Real-time RT-PCR in PMCs from dialysed rats
# Format: in vivo, rat
# Conditions: peritoneal cells from rats dialysed four weeks, aliskiren 0.1 or 1 mg/Kg, FIG. 17
# Method: The rats were exposed daily for four weeks to carrier (saline serum), 1.5% PDF, 2.3% PDF or 4.5% PDF supplemented by carrier, 0.1 mg/Kg aliskiren or 1 mg/Kg aliskiren. The data is expressed as mean±SEM, n=6 rats per group.* p<0.05, compared to the group treated with carrier in the absence of aliskiren (carrier). # p<0.05, compared to their respective groups treated with PDFs in the absence of aliskiren. […]
# At the end of the experimental period (four weeks), 30 ml of a commercial PDF with 2.3% glucose (Fresenius Medical Car, Bad Homburg, Germany) was administered intraperitoneally using a 22G needle. […] Their body weight was measured at the start and end of the experimental period. […]
# The blood and dialysate samples were centrifuged and stored at −20° C. The concentrations of creatinine and glucose in the serum and dialysate were measured using enzymatic methods. The peritoneal transport of solutes was calculated, on one hand, as the glucose concentration in the dialysate 2 hours after the PET relative to the initial glucose concentration in the PDF (D2/D0 glucose) and, on the other, as the dialysate/plasma creatinine concentration ratio (D2/P2 creatinine) 2 h after the PET. […]
# The RNA expression was evaluated by real-time RT-PCR in PMCs. […] RNA quality and concentration was evaluated by spectrophotometry (Infinite 200, Tecan, Salzburg, Austria) using 1 μl of the RNA sample. […]
compound,measurement,value
COCCCOc1cc(C[C@@H](C[C@H](N)[C@@H](O)C[C@H](C(=O)NCC(C)(C)C(N)=O)C(C)C)C(C)C)ccc1OC [aliskiren],RNAm expression of fibronectin,increased
